Test results taken from patent US12558344B2, “Composition for preventing or treating brain-nervous system diseases comprising rita or derivatives thereof” (priority 2019, dated 2026).

Columns and labels:
[1] = tested on: adult hippocampal neural stem cells (HCN cells); assay: Cell death assay (Hoechst 33342/PI) of stress hormone (CORT)-induced death of adult hippocampal neural stem cells; type: cell-based, rat; details: 50 nM RITA (3 h pre-treatment, then with 200 μM CORT), 48 hours, FIG. 1
Description: First, adult hippocampal neural stem cells (HCN cells; hereinafter, referred to as “HCN”) were isolated from an 8-week-old female Sprague-Dawley rat (SD rat). Afterward, the isolated hippocampal neural stem cells were incubated using a serum-free medium containing Dulbecco's modified Eagle's medium (DMEM)/F-12 to which N2 and basic fibroblast growth factor (bFGF; PeproTech) were added in a 37° C. incubator. The cells were subcultured every 3 or 4 days. The subcultured neural stem cells were put into a 96-well plate at 1.5×10^5 cells/ml, 50 nM RITA was treated together with 200 μM corticosterone (CORT), and cell death was confirmed after 48 hours. Before CORT treatment, 50 nM RITA was pre-treated for 3 hours and then treated again along with CORT. For cell death assay, the cells were stained with Hoechst 33342 (Invitrogen) and propidium iodide (PI; Sigma) and photographed by a fluorescence microscope (Axiovert 40 CFL; Carl Zeiss), and the percentage of cell death was calculated by the following cell death (%) equation. Cell death (%)=(the number of PI[red]−positive cells/the number of Hoechst [blue]−positive cells)×100

[2] = tested on: hippocampal neural stem cells; assay: Neural stem cell protection in chronic restraint stress (CRS) mouse, SOX2/Ki67 immunohistochemistry of hippocampus; type: in vivo; details: 10 mg/kg intraperitoneally for 10 days, CRS 7 days, FIG. 2
Description: An 8-week-old male C57BL/6 mouse was subjected to chronic restraint stress (CRS) using a restrainer from 10 AM to 4 PM daily for 7 days. RITA (10 mg/kg) was intraperitoneally injected using a 1-ml syringe at 9:30 AM for 10 days from 3 days before the stress experience. To confirm the number of hippocampal neural stem cells in the RITA-injected mouse, the control and the stress-experiencing mice were anesthetized by injecting the neuro-anesthetic Zoletil and the muscle anesthetic Rompun to isolate brain tissue. Afterward, the brain tissue was frozen with an optimal cutting temperature compound after fixing the brain with 4% paraformaldehyde (PFA). To perform immunohistochemistry, the frozen brain was cut in the coronal plane to a thickness of 40 μm, and then a neural stem cell indicator, SOX2, and a cell proliferation indicator, Ki67 protein, were labeled with Alexa488 or Alexa555 and stained. The number of fluorescence-expressing cells in the hippocampus of the stained brain was detected using a Confocal 780 microscope (Zeiss), and the result is shown in FIG. 2. As a control, oil, which is a medium in which RITA is dissolved, was injected.

[3] = tested on: C57BL/6 mouse subjected to chronic restraint stress; assay: Open field test, anxiety-related behavior in CRS mouse; type: in vivo; details: open field test 20 minutes, 10 mg/kg intraperitoneally, FIG. 3
Description: (§1) An 8-week-old male C57BL/6 mouse was subjected to chronic restraint stress (CRS) using a restrainer from 10 AM to 4 PM daily for 7 days. RITA (10 mg/kg) was intraperitoneally injected using a 1-ml syringe at 9:30 AM for 10 days from 3 days before the stress experience. Specifically, to measure anxiety-related behavior, an open field test was performed. The degree of anxiety was measured by observing a staying rate during a staying time in the middle in a square with a size of 40×40 cm^2 for 20 minutes. In addition, to measure spatial memory ability, a Y-Maze test was performed. The degree of spatial memory ability was measured by measuring the rate (arm alteration) entering each passage while freely moving in a Y-shaped maze space composed of three passages for 6 minutes.

[4] = tested on: C57BL/6 mouse subjected to chronic restraint stress; assay: Y-Maze test, spatial memory in CRS mouse; type: in vivo; details: Y-Maze test 6 minutes (arm alteration), 10 mg/kg intraperitoneally, FIG. 4
Description: as §1

Compound: OCc1ccc(-c2ccc(-c3ccc(CO)s3)o2)s1 [RITA, 2,5-bis[5-hydroxymethyl-2-thienyl] furan]
- death of neural stem cells caused by a stress hormone [1]: inhibits the death of neural stem cells
- number of cells expressing Ki67 (cell proliferation indicator) decreased by stress [2]: considerably increased compared to the control
- number of cells expressing SOX2 (stem cell indicator) decreased by stress [2]: considerably increased compared to the control
- anxiety disorder-related behavior caused by stress experience [3]: prevented
- spatial memory disability caused by stress experience [4]: prevented
